The values that follow are results of earlier work, collected in US10987332B2, “Sprayable aqueous composition comprising glyceryl trinitrate” (G. POHL-BOSKAMP GMBH & CO. KG, priority 2013, dated 2021).

For data set [1], the system named is Sprague-Dawley rats. The conditions noted are these: rat, in vivo.
In data set [2] the test system is Sprague-Dawley rats. Conditions: RIP (Modules 2-4).

For `O=[N+]([O-])OCC(CO[N+](=O)[O-])O[N+](=O)[O-]` [NTG, nitroglycerin], the solubility in water result was “about 1 mg/ml”.

As for `O=[N+]([O-])O[C@H]1CO[C@H]2[C@@H]1OC[C@H]2O[N+](=O)[O-]` [ISDN, isosorbide dinitrate], in the data set on Sprague-Dawley rats [1], the Infarct size was 7.59±4.38%. The VPB-Score in the data set on Sprague-Dawley rats [2] was 4.57.
